By EC50 is commonly meant the concentration needed to bring the measured effect to its halfway point.

Structures are written as SMILES.

In this experiment the target is recombinant DYRK1A kinase (Homo sapiens (Human), UniProt Q13627). In words: DYRK1A kinase assay (Ser/Thr 18 peptide Z-lyte FRET assay). The experiment is classed as biochemical. The settings on record: DYRK1A kinase activity; 15 μM ATP, 1 h room temperature; method text calls the value IC50. In a few lines:
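Recombinant human DYRK1A (0.25 μg/mL) with 15 μM ATP and 4 μM Ser/Thr 18 peptide, 1 h at room temperature with compound (11-point, 1:3, 10 μM top, duplicate). Z-lyte development 1 h, then coumarin/fluorescein FRET emission ratio converted to % phosphorylation; IC50 by non-linear regression.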
As for `c1cnc2cc(-c3c[nH]c4nc(NC5CCOCC5)ncc34)ccc2n1` [Compound 1934, 5-(Quinoxalin-6-yl)-N-(tetrahydro-2H-pyran-4-yl)-7H-pyrrolo[2,3-d]pyrimidin-2-amine], the concentration giving a half-maximal response (EC50) stood at 7.8 nM.

As for `CN1CCN(c2ccc(Nc3ncc4c(-c5ccc6nccnc6c5)c[nH]c4n3)cn2)CC1` [Compound 1938, N-(6-(4-Methylpiperazin-1-yl)pyridin-3-yl)-5-(quinoxalin-6-yl)-7H-pyrrolo [2,3-d]pyrimidin-2-amine], the EC50 was 3.3 nM.

In the case of `CC(C)(F)CNc1ncc2c(-c3ccc4ncncc4c3)c[nH]c2n1` [Compound 1956, N-(2-Fluoro-2-methylpropyl)-5-(quinazolin-6-yl)-7H-pyrrolo[2,3-d]pyrimidin-2-amine], the 50% effective concentration (EC50) worked out at 11.9 nM.

`CN1CCN(c2ccc(CNc3ncc4c(-c5ccc6ncncc6c5)c[nH]c4n3)cn2)CC1` [Compound 1982, N-((6-(4-Methylpiperazin-1-yl)pyridin-3-yl)methyl)-5-(quinazolin-6-yl)-7H-pyrrolo[2,3-d]pyrimidin-2-amine]: the concentration giving a half-maximal response (EC50) was found to be 2.9 nM.

For the molecule `CN1CCN(c2ncnc3ccc(-c4c[nH]c5nc(N)ncc45)cc23)CC1` [Compound 1986, 5-(4-(4-Methylpiperazin-1-yl)quinazolin-6-yl)-7H-pyrrolo[2,3-d]pyrimidin-2-amine], the concentration for a half-maximal effect (EC50) is 41.6 nM.

In the case of `CN1CCN(c2ncnc3ccc(-c4c[nH]c5nc(C6CC6)ncc45)cc23)CC1` [Compound 1987, 6-(2-Cyclopropyl-7H-pyrrolo[2,3-d]pyrimidin-5-yl)-4-(4-methylpiperazin-1-yl)quinazoline], the 50% effective concentration (EC50) turned out to be 70.4 nM.

`CN1CCC(Oc2cnc3ccc(-c4c[nH]c5nc(N)ncc45)cc3n2)CC1` [Compound 1994, 5-(3-((1-Methylpiperidin-4-yl)oxy)quinoxalin-6-yl)-7H-pyrrolo[2,3-d]pyrimidin-2-amine]: the EC50 came out at 13.8 nM.

As for `CN1CCN(c2cc(Nc3ncc4c(-c5ccn6ncc(-c7cccnc7)c6c5)c[nH]c4n3)ccn2)CC1` [Compound 2031, N-(2-(4-methylpiperazin-1-yl)pyridin-4-yl)-5-(3-(pyridin-3-yl)pyrazolo[1,5-a]pyridin-5-yl)-7H-pyrrolo[2,3-d]pyrimidin-2-amine], the EC50 is 12.8 nM.

On to `CNc1ncc2c(-c3ccn4ncc(C(=O)N5CCN(C)CC5)c4c3)c[nH]c2n1` [Compound 2032, (5-(2-(Methylamino)-7H-pyrrolo[2,3-d]pyrimidin-5-yl)pyrazolo[1,5-a]pyridin-3-yl)(4-methylpiperazin-1-yl)methanone], for which the EC50 came out at 58.8 nM.

Turning to `CO[C@H]1C[C@@H](Nc2ncc3c(-c4ccc5nccn5n4)c[nH]c3n2)C1` [Compound 2053, 5-(Imidazo[1,2-b]pyridazin-6-yl)-N-(cis-3-methoxycyclobutyl)-7H-pyrrolo [2,3-d]pyrimidin-2-amine], the EC50 turned out to be 1.9 nM.

For `CO[C@H]1C[C@@H](Nc2ncc3c(-c4ccn5nccc5n4)c[nH]c3n2)C1` [Compound 2070, N-(cis-3-Methoxycyclobutyl)-5-(pyrazolo[1,5-a]pyrimidin-5-yl)-7H-pyrrolo [2,3-d]pyrimidin-2-amine], the EC50 was 2.9 nM.

With `CO[C@H]1C[C@@H](Nc2ncc3c(-c4ccc5ncccc5c4)c[nH]c3n2)C1` [Compound 2075, N-(cis-3-Methoxycyclobutyl)-5-(quinolin-6-yl)-7H-pyrrolo[2,3-d]pyrimidin-2-amine], the EC50 was 8 nM.

In the case of `CO[C@H]1C[C@@H](Nc2ncc3c(-c4ccc5nccnc5c4)c[nH]c3n2)C1` [Compound 2076, N-(cis-3-Methoxycyclobutyl)-5-(quinoxalin-6-yl)-7H-pyrrolo[2,3-d]pyrimidin-2-amine], the EC50 was found to be 5.7 nM.

On to `FC(F)(F)O[C@H]1CC[C@@H](Nc2ncc3c(-c4ccn5nccc5c4)c[nH]c3n2)CC1` [Compound 2104, 5-(Pyrazolo[1,5-a]pyridin-5-yl)-N-(cis-4-(trifluoromethoxy)cyclohexyl)-7H-pyrrolo[2,3-d]pyrimidin-2-amine], for which the EC50 came to 690 nM.

Consider `CCO[C@H]1CC[C@@H](Nc2ncc3c(-c4cc(F)c5nccn5c4)c[nH]c3n2)CC1` [Compound 2129, N-(cis-4-Ethoxycyclohexyl)-5-(8-fluoroimidazo[1,2-a]pyridin-6-yl)-7H-pyrrolo[2,3-d]pyrimidin-2-amine], for which the 50% effective concentration (EC50) was 2.4 nM.

On to `CCO[C@H]1CC[C@@H](Nc2ncc3c(-c4ccc5nnn(C)c5c4)c[nH]c3n2)CC1` [Compound 2143, N-(cis-4-Ethoxycyclohexyl)-5-(1-methyl-1H-benzo[d][1,2,3]triazol-6-yl)-7H-pyrrolo[2,3-d]pyrimidin-2-amine], for which the EC50 turned out to be 9.9 nM.

As to `CCO[C@H]1CC[C@@H](Nc2ncc3c(-c4ccc5nccn5n4)c[nH]c3n2)CC1` [Compound 2145, N-(cis-4-Ethoxycyclohexyl)-5-(imidazo[1,2-b]pyridazin-6-yl)-7H-pyrrolo [2,3-d]pyrimidin-2-amine], the EC50 is 3 nM.

As for `CCO[C@H]1CC[C@@H](Nc2ncc3c(-c4ccn5nccc5n4)c[nH]c3n2)CC1` [Compound 2162, N-(cis-4-Ethoxycyclohexyl)-5-(pyrazolo[1,5-a]pyrimidin-5-yl)-7H-pyrrolo [2,3-d]pyrimidin-2-amine], the 50% effective concentration (EC50) worked out at 8.5 nM.

In the case of `[2H]C([2H])([2H])O[C@H]1CC[C@@H](Nc2ncc3c(-c4ccc5nccn5n4)c[nH]c3n2)CC1` [Compound 2171, 5-(Imidazo[1,2-b]pyridazin-6-yl)-N-(cis-4-(methoxy-d3)cyclohexyl)-7H-pyrrolo[2,3-d]pyrimidin-2-amine], the EC50 was found to be 1.5 nM.

For `[2H]C([2H])([2H])O[C@H]1CC[C@@H](Nc2ncc3c(-c4ccc5nnn(C)c5c4)c[nH]c3n2)CC1` [Compound 2172, N-(cis-4-(Methoxy-d3)cyclohexyl)-5-(1-methyl-1H-benzo[d][1,2,3]triazol-6-yl)-7H-pyrrolo[2,3-d]pyrimidin-2-amine], the 50% effective concentration (EC50) is 5 nM.

As for `[2H]C([2H])([2H])O[C@H]1CC[C@@H](Nc2ncc3c(-c4ccc5nccnc5c4)c[nH]c3n2)CC1` [Compound 2173, N-(cis-4-(Methoxy-d3)cyclohexyl)-5-(quinoxalin-6-yl)-7H-pyrrolo[2,3-d]pyrimidin-2-amine], the concentration giving a half-maximal response (EC50) was 10.5 nM.

For `COc1nc(N[C@H](C)C(F)(F)F)nc2[nH]cc(-c3ccc4nccn4c3)c12` [Compound 2174, (R)-5-(Imidazo[1,2-a]pyridin-6-yl)-4-methoxy-N-(1,1,1-trifluoropropan-2-yl)-7H-pyrrolo[2,3-d]pyrimidin-2-amine], the EC50 stood at 1.6 nM.

For the molecule `COC[C@@H](C)Nc1nc(OC)c2c(-c3ccc4nccn4c3)c[nH]c2n1` [Compound 2175, (R)-5-(Imidazo[1,2-a]pyridin-6-yl)-4-methoxy-N-(1-methoxypropan-2-yl)-7H-pyrrolo[2,3-d]pyrimidin-2-amine], the EC50 is 74.9 nM.

For the molecule `COc1nc(N[C@H]2CC[C@@H](OCC(F)F)CC2)nc2[nH]cc(-c3ccc4nccn4c3)c12` [Compound 2176, N-(cis-4-(2,2-Difluoroethoxy)cyclohexyl)-5-(imidazo[1,2-a]pyridin-6-yl)-4-methoxy-7H-pyrrolo[2,3-d]pyrimidin-2-amine], the half-maximal effective concentration (EC50) is 2.1 nM.

Turning to `CCOc1nc(N[C@H](C)C(F)(F)F)nc2[nH]cc(-c3ccc4nccn4c3)c12` [Compound 2177, (R)-4-Ethoxy-5-(imidazo[1,2-a]pyridin-6-yl)-N-(1,1,1-trifluoropropan-2-yl)-7H-pyrrolo[2,3-d]pyrimidin-2-amine], the EC50 was 10.3 nM.

As for `C[C@@H](Nc1nc(OCCO)c2c(-c3ccc4nccn4c3)c[nH]c2n1)C(F)(F)F` [Compound 2178, (R)-2-((5-(imidazo[1,2-a]pyridin-6-yl)-2-((1,1,1-trifluoropropan-2-yl)amino)-7H-pyrrolo[2,3-d]pyrimidin-4-yl)oxy)ethan-1-ol], the concentration giving a half-maximal response (EC50) came to 6.8 nM.

In the case of `C[C@]1(O)CC[C@@H](Nc2ncc3c(-c4cc(F)c5nccn5c4)c[nH]c3n2)CC1` [Compound 2179, cis-4-((5-(8-Fluoroimidazo[1,2-a]pyridin-6-yl)-7H-pyrrolo[2,3-d]pyrimidin-2-yl)amino)-1-methylcyclohexan-1-ol], the EC50 was 2.2 nM.

`[2H]C([2H])([2H])O[C@H]1CC[C@@H](Nc2ncc3c(-c4cc(F)c5nccn5c4)c[nH]c3n2)CC1` [Compound 2180, 5-(8-Fluoroimidazo[1,2-a]pyridin-6-yl)-N-(cis-4-(methoxy-d3)cyclohexyl)-7H-pyrrolo[2,3-d]pyrimidin-2-amine]: the EC50 is 3.9 nM.

Take `Fc1cc(-c2c[nH]c3nc(N[C@H]4CC[C@@H](OCC(F)F)CC4)ncc23)cn2ccnc12` [Compound 2181, N-(cis-4-(2,2-Difluoroethoxy)cyclohexyl)-5-(8-fluoroimidazo[1,2-a]pyridin-6-yl)-7H-pyrrolo[2,3-d]pyrimidin-2-amine]: the 50% effective concentration (EC50) came out at 5.1 nM.

For `OCCO[C@H]1CC[C@@H](Nc2ncc3c(-c4cc(F)c5nccn5c4)c[nH]c3n2)CC1` [Compound 2182, 2-((cis-4-((5-(8-Fluoroimidazo[1,2-a]pyridin-6-yl)-7H-pyrrolo[2,3-d]pyrimidin-2-yl)amino)cyclohexyl)oxy)ethan-1-ol], the EC50 came out at 3.1 nM.

On to `COc1nc(N[C@H](C)C(F)(F)F)nc2[nH]cc(-c3cc(F)c4nccn4c3)c12` [Compound 2183, (R)-5-(8-Fluoroimidazo[1,2-a]pyridin-6-yl)-4-methoxy-N-(1,1,1-trifluoropropan-2-yl)-7H-pyrrolo[2,3-d]pyrimidin-2-amine], for which the EC50 came to 10.4 nM.

Take `COC[C@@H](C)Nc1nc(OC)c2c(-c3cc(F)c4nccn4c3)c[nH]c2n1` [Compound 2184]: the EC50 was 69.9 nM.

For the molecule `COc1nc(NC2CCC(F)(F)CC2)nc2[nH]cc(-c3cc(F)c4nccn4c3)c12` [Compound 2185, N-(4,4-Difluorocyclohexyl)-5-(8-fluoroimidazo[1,2-a]pyridin-6-yl)-4-methoxy-7H-pyrrolo[2,3-d]pyrimidin-2-amine], the EC50 came to 82 nM.

Values taken from patent US20250129104A1, “7H-PYRROLO[2,3-D]PYRIMIDINES AND PREPARATION AND USES THEREOF” (BioSplice Therapeutics, Inc., priority 2021, published 2025).
